Results: ChEMBL document CHEMBL1201862, “PubChem BioAssay data set” (2004)
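How tested: cells in 96-well plates exposed to compound for 48 hours at five concentrations. At the GI50, growth is halved.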 Active and inactive are the calls of the source. No stated cut-off is given here; in the data, active = GI50 up to about 1.1 µM and inactive = higher.

Key:
Assay in all cases: NCI-60 cell line screen, 48 h
[1] = test system: EKVX
[2] = test system: NCI-H226
[3] = test system: 786-0
[4] = test system: K562
[5] = test system: BT-549
[6] = test system: A498
[7] = test system: UACC-62
[8] = test system: UO-31
[9] = test system: OVCAR-5
[10] = test system: SW-620
[11] = test system: KM12
[12] = test system: HOP-92
[13] = test system: M14
[14] = test system: SK-MEL-2
[15] = test system: HOP-62
[16] = test system: SNB-19
[17] = test system: OVCAR-4
[18] = test system: NCI-H460
[19] = test system: SF-539
[20] = test system: LXFL 529

Measured: GI50

NS(=O)(=O)c1ccc(NC(=O)N/N=C/c2ccccc2[N+](=O)[O-])cc1
inactive: [1] 61 µM | [2] 42.9 µM | [3] 45.6 µM | [4] 28.8 µM | [5] 45.4 µM | [6] > 100 µM | [7] 75.3 µM | [8] 41 µM | [9] > 100 µM | [10] 36.1 µM | [11] 36 µM | [12] 65.3 µM | [13] 25.5 µM | [14] 58.7 µM | [15] 40.8 µM | [16] 44 µM | [17] 59.8 µM | [18] > 100 µM | [19] 38.5 µM

CC(=O)Nc1ccc(C2CC(c3ccc([N+](=O)[O-])cc3)=Nc3ccccc3S2)cc1 (stereo not given)
inactive: [1] 36.8 µM | [2] 26.9 µM | [3] 17.4 µM | [4] 4.73 µM | [6] 16.5 µM | [7] 15.2 µM | [8] 13.8 µM | [20] 16.6 µM | [9] 22.2 µM | [10] 16.8 µM | [11] 13.9 µM | [13] 13.5 µM | [14] 17.9 µM | [15] 17.1 µM | [16] 22.7 µM | [17] 19.7 µM | [18] 17.3 µM | [19] 17.7 µM

CC1(C)COC(c2ccccc2-c2ccccc2)=N1
inactive: [1] 72.1 µM | [2] > 100 µM | [3] > 100 µM | [4] 90.2 µM | [5] > 100 µM | [6] > 100 µM | [7] 54.6 µM | [8] 67.6 µM | [9] > 100 µM | [10] > 100 µM | [11] > 100 µM | [12] > 100 µM | [13] > 100 µM | [14] > 100 µM | [15] > 100 µM | [16] 71.6 µM | [17] > 100 µM | [18] > 100 µM | [19] > 100 µM

Cc1ccc(NC(=O)CC(=O)n2nc(C)c(/N=N/c3ccccc3C(=O)O)c2C)cc1
inactive: [1] > 100 µM | [3] > 100 µM | [4] > 100 µM | [6] > 100 µM | [7] > 100 µM | [8] > 100 µM | [20] > 100 µM | [9] > 100 µM | [10] > 100 µM | [11] > 100 µM | [13] > 100 µM | [14] > 100 µM | [15] > 100 µM | [16] > 100 µM | [17] > 100 µM | [18] > 100 µM | [19] > 100 µM

Cc1[nH]c2ccccc2c1C1Cc2ccccc2N1C(=O)/C=C/C(=O)O (stereo not given)
inactive: [1] > 100 µM | [2] > 100 µM | [3] > 100 µM | [4] > 100 µM | [6] > 100 µM | [7] > 100 µM | [8] > 100 µM | [20] > 100 µM | [9] > 100 µM | [10] > 100 µM | [11] > 100 µM | [13] > 100 µM | [14] > 100 µM | [15] > 100 µM | [16] > 100 µM | [17] > 100 µM | [18] 20 µM | [19] > 100 µM

O=C(CSc1nnc(-c2ccc(/N=C\c3ccc(Cl)cc3)cc2)o1)Nc1cccc(Cl)c1
inactive: [1] > 100 µM | [2] > 100 µM | [3] > 100 µM | [4] > 100 µM | [7] > 100 µM | [8] > 100 µM | [20] > 100 µM | [10] > 100 µM | [11] > 100 µM | [13] > 100 µM | [14] > 100 µM | [15] > 100 µM | [16] > 100 µM | [17] > 100 µM | [18] > 100 µM

Cc1ccccc1N1C(=O)/C(=C/c2ccc(N(CCC#N)CCC#N)cc2)N=C1c1cc([N+](=O)[O-])ccc1Cl
inactive: [2] > 100 µM | [3] 84.5 µM | [4] 35.8 µM | [6] > 100 µM | [7] 22.5 µM | [8] > 100 µM | [20] 96.8 µM | [9] 42.1 µM | [10] > 100 µM | [11] > 100 µM | [13] > 100 µM | [14] > 100 µM | [15] 25.6 µM | [16] > 100 µM | [17] > 100 µM | [18] > 100 µM | [19] > 100 µM

Cn1nc(-c2ccccc2)c(C(=O)/C=C/c2ccccc2)c(N2CCOCC2)c1=O
inactive: [1] > 10 µM | [3] 14.2 µM | [4] 17.9 µM | [6] 15.4 µM | [7] 19.8 µM | [8] 14.9 µM | [20] 16 µM | [10] 28.9 µM | [12] 5.06 µM | [13] 20.9 µM | [15] 37.2 µM | [16] > 10 µM | [18] 22.9 µM | [19] 15.9 µM

O=C(O)CC1OCC=C2C[N+]3([O-])CCC45c6ccccc6NC4C1C2CC53 (stereo not given)
inactive: [1] > 100 µM | [2] > 100 µM | [3] > 100 µM | [4] > 100 µM | [5] > 100 µM | [6] > 100 µM | [7] > 100 µM | [8] > 100 µM | [9] > 100 µM | [10] > 100 µM | [11] > 100 µM | [12] > 100 µM | [13] > 100 µM | [14] 17.7 µM | [15] > 100 µM | [16] > 100 µM | [17] > 100 µM | [18] > 100 µM | [19] > 100 µM

O=[N+]([O-])c1cc(Cl)ccc1OCc1ccccc1
inactive: [1] 27.2 µM | [3] 59 µM | [4] 42.7 µM | [6] > 100 µM | [7] > 100 µM | [20] 41.6 µM | [10] > 100 µM | [11] > 100 µM | [12] 34 µM | [13] 83.6 µM | [14] > 100 µM | [15] 52 µM | [17] > 100 µM | [18] 55.8 µM | [19] 57.3 µM

O=C(/C=C/c1ccc(O)c(O)c1)OCC(OC(=O)/C=C/c1ccc(O)c(O)c1)C(=O)O (stereo not given)
inactive: [1] > 100 µM | [2] > 100 µM | [3] > 100 µM | [4] > 100 µM | [5] > 100 µM | [6] > 100 µM | [7] > 100 µM | [8] 85.7 µM | [9] > 100 µM | [10] 50.8 µM | [11] > 100 µM | [12] > 100 µM | [13] > 100 µM | [14] > 100 µM | [15] 70.5 µM | [16] > 100 µM | [17] 90.2 µM | [18] 86.9 µM | [19] > 100 µM
